Converted amounts (≈) assume the structure as drawn. Read-outs that look alike come from different tables or passages of the source.
Experiments:
E. coli DH5α pBC-IMP-1 = test: Susceptibility test (microdilution), transformant; assay type: cell-based; conditions: Escherichia coli
Method: (§1) Susceptibility testing, based on the microdilution method, was performed according to the guidelines of the Clinical and Laboratory Standards Institute ([36]).

E. coli DH5α pBC-NDM-1 = test: Susceptibility test (microdilution), transformant; assay type: cell-based; conditions: for MPM MIC: E. coli DH5α pBC-NDM-1; for MIC: Escherichia coli, read-out: MPM MIC
Method: as §1

E. coli DH5α pCL-SMB-1 = test: Susceptibility test (microdilution), transformant; assay type: cell-based; conditions: for MPM MIC: E. coli DH5α pCL-SMB-1
Method: as §1

[1] = tested on: IMP-1-producing E. coli NUBL-24; test: Time-killing assay; assay type: cell-based; conditions: 12-h incubation; for Time-kill: effect on growth, HHIA alone: 50 µg/mL alone; for Time-kill: MPM-HHIA combination: MPM 1 µg/mL + HHIA 50 µg/mL
Method: The initial density of IMP-1-producing E. coli NUBL-24 (MPM MIC, 8 µg/mL) was adjusted to approximately 5 × 10^6 colony-forming units (cfu)/mL. Either MPM (1 µg/mL) or 9-HHIA/10-HHIA (50 µg/mL) alone or a combination of the two was added to the bacterial solution, and then incubation was performed at 37°C. LB broth containing bacteria alone was used as a control. At 0, 2, 4, 8, and 12 h after adding the agents, an aliquot of the bacterial culture was removed, diluted, and spotted on LB agar plates to count the viable bacterial cells. The detection limit was set at 333 cfu/mL.

IMP-1 [2] = molecular target: T1, IMP-1 (Serratia marcescens, UniProt P52699); assay type: biochemical; conditions: IMP-1 with agent (5 mM stock), dialysis
T1 construct: made in house
T1 sequence (P52699 19-246, looked up, species assumed): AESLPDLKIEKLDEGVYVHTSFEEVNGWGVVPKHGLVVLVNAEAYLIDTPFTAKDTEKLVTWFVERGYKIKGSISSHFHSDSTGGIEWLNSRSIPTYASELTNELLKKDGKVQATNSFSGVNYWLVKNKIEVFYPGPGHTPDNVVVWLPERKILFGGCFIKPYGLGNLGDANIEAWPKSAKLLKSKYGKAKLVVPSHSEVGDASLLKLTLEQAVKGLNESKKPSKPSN
Method: A total of 5 µL of IMP-1 (100 µM) and 2 µL of EDTA (5 mM) or HHIA (5 mM) were mixed in 100 µL of 20 mM HEPES buffer (pH 7.5) pretreated with Chelex 100 resin (Bio-Rad) and incubated on ice for 30 min. The samples were dialyzed against ultrapure water at 4°C for 6 h using Slide-A-Lyzer Dialysis Cassettes (cutoff, 3.5 K) (Thermo Fisher Scientific) and treated with proteinase K (FUJIFILM Wako Pure Chemical Corporation) at 37°C for 1 h. The zinc concentration in the samples was determined using a Zinc Assay Kit (MG Metallogenics).

IMP-1 [3] = molecular target: T1, IMP-1; assay type: binding; conditions: DSF; control protein 52.5°C
Method: The DSF assay was performed using the Protein Thermal Shift Dye Kit (Thermo Fisher Scientific) and StepOnePlus Real-Time PCR Systems (Applied Biosystems) as follows: 2 µL of IMP-1 enzyme (100 µM), 1 µL of EDTA or HHIA solution (5 mM), 2.5 µL of diluted Protein Thermal Shift Dye (32×), 5 µL of Protein Thermal Shift buffer, and 9.5 µL of water were mixed in a test tube and incubated for 15 min at 4°C. Four replicates of each sample were performed. The fluorescence was monitored at 0.7°C increments from 4°C to 99°C. The relative fluorescence units were fitted with the Boltzmann equation using the TSA-CRAFT software to determine the melting point (Tm) ([47]).

[4] = read-out: MPM MIC, +agent 100 μg/mL

SMILES: C=C(C(=O)O)C(CCCCC(C)O)C(=O)O (stereo not shown) [9-HHIA, 9-hydroxyhexylitaconic acid]
- MIC (E. coli DH5α pBC-IMP-1; [4]): 0.125 µg/mL (≈ 0.543 µM)
- MPM MIC (E. coli DH5α pBC-NDM-1; +agent 25 μg/mL): 64 µg/mL
- MPM MIC (E. coli DH5α pBC-NDM-1; +agent 100 μg/mL): 64 µg/mL
- MIC (E. coli DH5α pBC-NDM-1): 64 µg/mL (≈ 278 µM)
- MPM MIC (E. coli DH5α pCL-SMB-1; +agent 25 μg/mL): 32 µg/mL
- MPM MIC (E. coli DH5α pCL-SMB-1; +agent 100 μg/mL): 32 µg/mL
- Time-kill: effect on growth, HHIA alone [1]: did not affect the growth
- Time-kill: MPM-HHIA combination [1]: did not permit the re-growth
- Zinc ions in IMP-1 after treatment (IMP-1 [2]): did not cause a significant loss of zinc ions
- Melting temperature (Tm) of treated IMP-1 (IMP-1 [3]): 54.9 °C

SMILES: C=C(C(=O)O)C(CCCCCCO)C(=O)O (stereo not shown) [10-HHIA, 10-hydroxyhexylitaconic acid]
- MIC (E. coli DH5α pBC-IMP-1; read-out: MPM MIC, +agent 25 μg/mL): 0.125 µg/mL (≈ 0.543 µM)
- MIC (E. coli DH5α pBC-IMP-1; [4]): ≤ 0.0625 µg/mL
- MPM MIC (E. coli DH5α pBC-NDM-1; +agent 25 μg/mL): 64 µg/mL
- MPM MIC (E. coli DH5α pBC-NDM-1; +agent 100 μg/mL): 64 µg/mL
- MIC (E. coli DH5α pBC-NDM-1): 64 µg/mL (≈ 278 µM)
- MPM MIC (E. coli DH5α pCL-SMB-1; +agent 25 μg/mL): 32 µg/mL
- MPM MIC (E. coli DH5α pCL-SMB-1; +agent 100 μg/mL): 32 µg/mL
- MIC (E. coli DH5α pCL-SMB-1; Escherichia coli, read-out: MPM MIC): 32 µg/mL (≈ 139 µM)
- Time-kill: effect on growth, HHIA alone [1]: did not affect the growth
- Time-kill: MPM-HHIA combination [1]: did not permit the re-growth
- Zinc ions in IMP-1 after treatment (IMP-1 [2]): did not cause a significant loss of zinc ions
- Melting temperature (Tm) of treated IMP-1 (IMP-1 [3]): 55.6 °C

From paper PMC10913484, “Hydroxyhexylitaconic acids as potent IMP-type metallo-β-lactamase inhibitors for controlling carbapenem resistance in Enterobacterales” (Microbiology Spectrum, 2024)
